Measured values reported in publication PMC6192554, “In vitro toxicity and efficacy of verdinexor, an exportin 1 inhibitor, on opportunistic viruses affecting immunocompromised individuals” (PLoS ONE, 2018).

What was measured:
[1] = Cytotoxicity in HeLa cells (MTS); type: cell-based; conditions: human
Experimental: Cytotoxicity assays: Concurrent assessment of cytotoxicity was also performed for each study in the same cell line and with the same compound exposure. For AdV cytotoxicity assay, at 6d post-infection plates were stained with tetrazolium-based MTS (CellTiter96 Reagent, Promega) and the microtiter plates were read spectrophotometrically at 490/650nm (Molecular Devices).

[2] = molecular target: histamine H1 receptor (Homo sapiens, UniProt P35367); assay: Histamine H1 receptor functional activity assay, agonist; type: biochemical; conditions: Study No. KS-1017, read-out: IC50 (50% inhibitory concentration)
[3] = ferrets receiving 5mg/kg; cited from earlier work
[4] = Cytotoxicity in HFF cells, concurrent with BKPyV assays; type: cell-based; conditions: human
Experimental: Cytotoxicity assays: Concurrent assessment of cytotoxicity was also performed for each study in the same cell line and with the same compound exposure. For KSHV, cell viability was assessed with the CellTiter-Glo Luminescent Cell Viability Assay (Promega) using manufacturer’s protocol. Luminescence was quantified on a luminometer. Standard methods were used to calculate the 50% cytotoxic level (CC50). Cytotoxicity assay was performed in a manner analogous to KSHV above.

[5] = Cytotoxicity in COS7 cells, concurrent with JCPyV assays; type: cell-based; conditions: African green monkey, COS-7 cells
Experimental: (§1) Cytotoxicity assays: Concurrent assessment of cytotoxicity was also performed for each study in the same cell line and with the same compound exposure.
For KSHV, cell viability was assessed with the CellTiter-Glo Luminescent Cell Viability Assay (Promega) using manufacturer’s protocol. Luminescence was quantified on a luminometer. Standard methods were used to calculate the 50% cytotoxic level (CC50).
(§2) Cytotoxicity assay was performed in a manner analogous to KSHV above. Evaluation of compounds against JCPyV virus was done in COS7 cells with the plasmid pMP508 to provide a standard curve for quantification.

[6] = tested on: JC polyoma virus MAD-4 strain; assay: microbe, parasite or virus in culture; type: cell-based; conditions: Polyomavirus sp., COS-7, JCPyV, COS-7 cells
Experimental: John Cunningham polyomavirus (JCPyV) strains MAD-1 and MAD-4 and BK polyomavirus (BKPyV) Gardner strain were obtained from ATCC. COS-7 cells were obtained from ATCC and maintained according to ATCC-supplied protocols.
as §2
Viral DNA was quantified (S1 Table) together with the plasmid pMP508 to provide a standard curve for absolute quantification. Secondary assays against JCV were also performed in COS7 cells by methods similar to those for BK virus to identify if verdinexor inhibited adsorption or entry of the virus.

[7] = tested on: HPV-11; assay: HPV-11 transient origin-plasmid replication assay in HEK293 cells (qPCR); type: cell-based, human papillomavirus; conditions: Human papillomavirus, HPV-11, primary screen
Experimental: HPV-11 and -18 were tested in HEK293 cells and primary human keratinocytes (PHK), respectively. PHKs were isolated from neonatal foreskins following circumcision according to IRB-approved protocols at UAB. They were grown in keratinocyte serum-free medium (Life Technologies) with mitomycin C-treated J2 feeder cells (Swiss 3T3 J2 fibroblasts; Elaine Fuchs, Rockefeller University). HEK 293 cells were maintained under standard conditions.
Quantification of virus was determined via transient replication of an HPV-11 replication origin-containing plasmid in HEK293 cells co-transfected with an HPV-11 replicative DNA helicase E1 and origin binding E2 protein [20]. 293 cells were cultured with test compounds added 4hr post-transfection for 2 days. Low molecular weight DNA was isolated, digested with Dpn1 and exonuclease III to eliminate unreplicated DNA. The Dpn1-resistant DNA was then subjected to qPCR analyses amplifying a small portion of the replication origin [20]. In a negative control, the E1 expression vector was omitted or cultures were treated with the inhibitor cidofovir.

[8] = tested on: Rev-GFP fusion; parameters: method as in PMID 3025240; conditions: read-out: EC50, forced nuclear retention of Rev-GFP fusion; cited from earlier work
[9] = tested on: Human adenovirus type 5; assay: Adenovirus virus yield (TCID50) assay in HeLa cells; type: cell-based; conditions: Human mastadenovirus C
Experimental: Human adenovirus type 5 was obtained from ATCC and cultured in HeLa cells under standard conditions.
Prior to assessing cell viability using MTS, supernatants were collected from plates and titrated to determine virus yield. Serial dilutions of supernatants were incubated on HeLa cells for 3 days. Following incubation, wells were visually scored for infection and TCID50, EC50, CC50 and SI were calculated for each sample.

[10] = tested on: Epstein-Barr virus (EBV) Akata strain; assay: EBV primary assay, DNA hybridization in induced Akata cells; type: cell-based
Experimental: EBV Akata strain was assayed in Akata cells (John Sixbey, LSU) latently infected with EBV (and therefore oncogenic). Cells were maintained in RPMI 1640, (Mediatech) with 10% FBS (Hyclone), L-glutamine, penicillin and gentamicin.
For Primary assay, Akata cells latently infected with EBV were induced to undergo lytic infection by addition of 50μg/ml of a goat anti-human IgG [16] and a dose-range of verdinexor (0.032 to 100 μM) was added for 72hr. Denaturation buffer was added and an aliquot aspirated through an Immobilon nylon membrane (Millipore, Bedford, MA). Dried membranes were equilibrated in DIG Easy Hyb solution (Roche Diagnostics, Indianapolis, IN) at 56°C. Specific DIG-labeled probes for EBV (S1 Table). (Roche Diagnostics). Membranes with EBV DNA were hybridized overnight followed by washes in 0.2× SSC and 0.1× SSC both with 0.1% SDS. Detection of specifically bound DIG probe was performed with anti-DIG antibody (Roche Diagnostics). An image of the photographic film was captured and quantified with QuantityOne software (Bio-Rad), and the EC50 were interpolated.

[11] = Cytotoxicity in HFF cells, concurrent with HCMV assays; type: cell-based; conditions: human, human foreskin fibroblast cells (HFF)
Experimental: as §1
For HCMV cytotoxicity assay was determined via neutral red uptake assay and was conducted as reported previously in HFF cells. Optical densities were determined at 550nm.
Yield reduction assays for HCMV were performed on monolayers of HFF cells prepared in 96-well plates and incubated at 37°C for 1d to allow the cells to reach confluency. Media was then aspirated from the wells were infected at a high multiplicity of infection (MOI). At 1h following infection, the inocula were removed and the monolayers rinsed with fresh media. Compounds were then diluted in assay media consisting of MEM with Earl’s salts supplemented with 2% FBS, L-glutamine, penicillin, and gentamycin. Solutions ranging from 0.0032–10μM in primary assay and 0.032–100μM in secondary assay were added to the wells and the plates were incubated for various times, depending on the virus used and represents the length of a single replication cycle for the virus. A duplicate set of dilutions were also performed but remained uninfected to serve as a cytotoxicity control and received equal compound exposure. Supernatants from each of the infected wells were subsequently titered in a TCID50 assay to quantify the progeny virus. […]

Sequence of histamine H1 receptor (P35367 whole entry, species assumed): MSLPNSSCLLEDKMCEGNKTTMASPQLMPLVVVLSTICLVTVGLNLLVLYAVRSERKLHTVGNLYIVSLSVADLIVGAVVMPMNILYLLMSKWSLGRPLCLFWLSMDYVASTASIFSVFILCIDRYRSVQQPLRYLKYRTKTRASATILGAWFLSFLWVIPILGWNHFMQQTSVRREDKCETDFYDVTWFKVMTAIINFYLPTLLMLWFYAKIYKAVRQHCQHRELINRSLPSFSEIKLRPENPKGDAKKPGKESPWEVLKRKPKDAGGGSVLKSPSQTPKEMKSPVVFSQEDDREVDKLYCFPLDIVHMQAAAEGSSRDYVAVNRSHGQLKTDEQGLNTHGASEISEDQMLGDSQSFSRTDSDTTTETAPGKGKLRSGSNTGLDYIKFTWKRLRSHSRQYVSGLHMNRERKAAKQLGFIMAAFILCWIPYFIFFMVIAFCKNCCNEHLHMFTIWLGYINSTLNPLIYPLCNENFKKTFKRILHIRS

Compound: O=C(C=Cn1cnc(-c2cc(C(F)(F)F)cc(C(F)(F)F)c2)n1)NNc1ccccn1 (stereo in doubt) [verdinexor, (E)-3-[3-[3,5-bis(trifluoromethyl)phenyl]-1,2,4-triazol-1-yl]-N'-pyridin-2-ylprop-2-enehydrazide]
- CC50 at 6 d ([1]; Ad5 primary screen): 180 nM
- CC50 at 6 d ([1]; Ad5 secondary screen): 100 nM
- IC50 [2]: > 10 µM
- half life [3]: 2 h
- CC50 ([4]; BKPyV primary screen): 10 µM
- CC50 ([4]; BKPyV secondary screen): 9.38 µM
- CC50 ([5]; JCPyV primary screen): 10 µM
- CC50 ([5]; JCPyV secondary screen): 73.3 µM
- EC50 ([6]; primary screen): 7.45 µM
- EC50 ([6]; secondary screen): 3.14 µM
- EC50 [7]: 1650 nM
- EC50 [8]: 160 nM
- EC50 ([9]; Ad5, primary screen): > 180 nM
- EC50 ([9]; Ad5, secondary screen): < 30 nM
- SI (Selectivity Index, CC50/EC50) ([10]; EBV, primary screen, DNA hybridization): < 1
- EC50 ([10]; human gammaherpesvirus 4, Akata): > 480 nM
- CC50 ([11]; HCMV primary screen): 1.76 µM
- CC50 ([11]; HCMV secondary screen): 73.3 µM
